The record followed here is patent US20100093719A1, “PHARMACOKINETICALLY IMPROVED COMPOUNDS” (SURFACE LOGIX, INC., priority 2005, published 2010).

Values after ≈ are worked out from the molar mass of the structure shown. Like-named read-outs stand apart in the source and are kept apart here.

The nature of one data set: Cytotox GC50. It counts as cell-based.
The nature of another data set: RLM stability T1/2. It counts as in vitro ADME. As to conditions: rat, liver microsomes. A general note: Microsomes from liver hold many membrane-bound enzymes, among them those of drug oxidation.
A further data set in a line: Cytotox LC50. To be noted: read-out: Cytotox LC50 Acute.
A further data set addresses PDE-3. Kind of data set: Phosphodiesterase inhibition PDE-3. It counts as biochemical. As for the experimental part: (§1) Phosphodiesterase inhibition was determined by methods known to one of skill in the art.
For the next data set, the target named is PDE-1. Briefly: Phosphodiesterase inhibition PDE-1. It counts as biochemical. As for the experimental part: as §1
A further data set has as its target PDE-6. Briefly: Phosphodiesterase inhibition PDE-6. The data set is classed as biochemical. As for the experimental part: as §1
A further data set can be described thus: Solubility. The data set is classed as physicochemical.
The next data set has as its system Caco-2. Kind of data set: Caco-2 permeability. The data set is classed as in vitro ADME. From the text:
Several model systems are available, employing monolayers of various cell types, for evaluation of active transport of pharmaceutically active substances. For example, monolayers of Caco-2 intestinal epithelial cells can be used to evaluate active transport of substances between the intestine and the bloodstream. When plated on a surface which allows the flow of material from apical to basolateral and vice versa, such cells form a biological membrane which can be used to simulate physiological absorption and bio-availability. In another example, mouse brain capillary endothelial cell (MBEC) lines have been established to evaluate active transport in and out of the central nervous system. Another example of such cells is HT29 human colon carcinoma cells. Further, monolayers expressing particular transporter proteins can be established using transfected cells. For example, Sasaki et al (2002) J. Biol. Chem. 8:6497 used a double-transfected Madin-Darby canine kidney cell monolayer to study transport of organic anions.
On the technique in general: Caco-2 cells form a polarised layer with tight junctions and transporters.

Another data set concerns the target PDE-5 (Bos taurus, UniProt Q28156). Briefly: Phosphodiesterase inhibition PDE-5 bovine. The data set is classed as biochemical. How it is done: as §1
A further data set is described as follows: PAMPA permeability. The data set is classed as in vitro ADME.
The next data set deals with PDE5 (Homo sapiens, UniProt O76074). Kind of data set: Phosphodiesterase inhibition PDE-5 human. The data set is classed as biochemical. As for the experimental part: as §1
A further data set can be described thus: Non-specific binding. It counts as in vitro ADME.
The mark [1] stands for this setting: pH 2.7, aqueous buffer, read-out: Solubility pH 2.7.
The mark [2] stands for this setting: pH 7.4, aqueous buffer, read-out: Solubility pH 7.4.

In general, half-life refers to the time needed for the level to fall by half in the phase considered. As usually defined, the IC50 is the concentration needed to halve the response being measured. As usually defined, the solubility is the concentration that dissolves in the medium under given conditions. With `CCCc1nc(C)c2c(=O)[nH]c(-c3cc(S(=O)(=O)N(C)[C@H](C)C(=O)N(C)C)ccc3OCC)nn12` [Compound 2], the “Cytotox GC50” value in “Cytotox GC50” came out at 94600 nM. This compound also yielded a half-life in the data set “RLM stability T1/2” of 32.6 min. Moreover, the CC50 in “Cytotox LC50” is 100000 nM; in the data set “in vitro”, no less than 100000 nM. The IC50 at PDE-3 came to 507 nM; on PDE-1, 13 nM; against PDE-6 it was 0.605 nM; against PDE-5 it was 0.101 nM; on PDE5, 0.0395 nM. Further, the solubility in the data set “Solubility” (setting [1]) and in the data set “Solubility” (setting [2]) was greater than 100 µM each time. Further, the “Caco-2 AtoB” value in the data set with Caco-2 is given as 33.33 10^−6. Moreover, the “Caco-2 BtoA” value in the data set on Caco-2 is listed as 61.33 10^−6. In the data set “PAMPA permeability”, the “PAMPA Hex” value is reported as 18.2 10^−6. Moreover, in “Non-specific binding”, the “Non-Spec Binding” value is 20.7%.

With `CCCc1nc(C)c2c(=O)[nH]c(-c3cc(S(=O)(=O)N(C)CC(=O)N(C)C)ccc3OCC)nn12` [Compound 1], in the data set “Cytotox GC50”, the “Cytotox GC50” value was determined as 76700 nM. Further, in the data set “RLM stability T1/2”, the half-life is 22 min. For the same compound, the values for the CC50 in “Cytotox LC50” and in “in vitro” were 100000 nM and 75000 nM, respectively. Further, the IC50 on PDE-3 amounted to 986 nM; against PDE-1, 25 nM; at PDE-6, 3.5 nM; against PDE-5 it was 0.122 nM; on PDE5 it was 0.097 nM. The figures for the solubility in the data set “Solubility” (setting [1]) and in “Solubility” (setting [2]) were greater than 100 µM and 96.1 µM (≈ 47.2 µg/mL), respectively. For the same compound, the “Caco-2 AtoB” value in the data set on Caco-2 is reported as 17.46 10^−6. In the data set with Caco-2, the “Caco-2 BtoA” value was 48.88 10^−6. Besides, in “PAMPA permeability”, the “PAMPA Hex” value is listed as 5.49 10^−6. In addition, in the data set “PAMPA permeability” (Lec), the “PAMPA Lec” value is recorded as 0.128 10^−6. The “Non-Spec Binding” value in “Non-specific binding” is reported as 11.07%.

Turning to `CCCc1nc(C)c2c(=O)[nH]c(-c3cc(S(=O)(=O)N(C)C(C)(C)C(=O)N(C)C)ccc3OCC)nn12` [Compound 3], the “Cytotox GC50” value in the data set “Cytotox GC50” came to 100000 nM. The compound also came in with a half-life in the data set “RLM stability T1/2” of 72.7 min. Besides, the CC50 is 100000 nM in “Cytotox LC50” and no less than 100000 nM in “in vitro”. Further, the IC50 is 412 nM against PDE-3; 10 nM at PDE-1; 1.7 nM against PDE-6; 0.138 nM on PDE-5; 0.16 nM against PDE5. Besides, the solubility in “Solubility” (setting [1]) and in “Solubility” (setting [2]) was greater than 100 µM in each case. Also, in the data set on Caco-2, the “Caco-2 AtoB” value is recorded as 28.85 10^−6. Besides, the “Caco-2 BtoA” value with Caco-2 is 58.45 10^−6. Also, in the data set “PAMPA permeability”, the “PAMPA Hex” value was 9.11 10^−6. Also, in “Non-specific binding”, the “Non-Spec Binding” value was found to be 14.3%.
